This note sets out measurements from patent US8222247B2, “Modulators of glucocorticoid receptor, AP-1, and/or NF-kappabeta activity and use thereof” (Bristol-Myers Squibb Company, priority 2006, dated 2012).

What is called Ki is the dissociation constant of the complex between target and ligand, obtained from inhibition or displacement. The EC50 is the concentration needed to bring the measured effect to its halfway point.

Each structure is given as a SMILES string.

The target of experiment [1] is T1, human glucocorticoid receptor (Homo sapiens, UniProt P04150).
T1 construct: purified human recombinant full-length glucocorticoid receptor (2 nM); purchased Invitrogen Part #2893
T1 sequence (P04150 1-777): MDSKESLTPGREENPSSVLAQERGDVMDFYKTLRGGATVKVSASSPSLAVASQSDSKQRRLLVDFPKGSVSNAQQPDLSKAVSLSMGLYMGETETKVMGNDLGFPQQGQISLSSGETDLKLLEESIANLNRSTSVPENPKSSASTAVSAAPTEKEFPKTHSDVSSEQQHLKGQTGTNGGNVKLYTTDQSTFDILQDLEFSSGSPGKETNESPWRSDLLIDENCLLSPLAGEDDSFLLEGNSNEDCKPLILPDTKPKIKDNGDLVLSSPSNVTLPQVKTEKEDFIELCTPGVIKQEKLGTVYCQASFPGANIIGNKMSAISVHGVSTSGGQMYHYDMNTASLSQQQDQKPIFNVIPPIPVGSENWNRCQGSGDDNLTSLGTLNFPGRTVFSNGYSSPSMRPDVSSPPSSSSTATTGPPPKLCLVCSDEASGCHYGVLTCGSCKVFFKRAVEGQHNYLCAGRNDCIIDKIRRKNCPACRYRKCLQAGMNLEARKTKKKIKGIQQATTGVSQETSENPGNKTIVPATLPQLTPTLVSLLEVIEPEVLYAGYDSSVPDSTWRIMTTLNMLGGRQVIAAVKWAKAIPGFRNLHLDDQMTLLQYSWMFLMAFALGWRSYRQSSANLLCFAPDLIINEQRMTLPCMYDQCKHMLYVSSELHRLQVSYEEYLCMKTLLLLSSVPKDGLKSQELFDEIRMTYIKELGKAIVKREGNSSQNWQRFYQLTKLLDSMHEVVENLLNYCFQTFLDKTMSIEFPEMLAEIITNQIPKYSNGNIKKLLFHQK
In words: Glucocorticoid Receptor Binding Assay (I), fluorescence polarization competitor kit. The conditions noted are these: purified human recombinant full-length GR, Fluormone GS Red. As to the method:
Glucocorticoid Receptor Binding Assay (I)^a
In order to assess the affinity of test compounds for the human glucocorticoid receptor, a commercially available kit was used (Glucocorticoid Receptor Competitor Assay Kit, Invitrogen Part #2893). Briefly, purified human recombinant full-length glucocorticoid receptor (2 nM) was mixed with fluorescently labeled glucocorticoid (1 nM Fluormone GS Red) in the presence or absence of test compound. After two hour incubation at room temperature in the dark, the fluorescence polarization (FP) of the samples was measured. The FP of a mixture of receptor, fluorescent probe (i.e. Fluormone GS Red) and 5 μM dexamethasone represented background fluorescence or 100% inhibition, whereas, the FP of the mixture without dexamethasone (but in the presence of vehicle) was taken to be 100% binding. The percentage inhibition of test compounds were then compared to the sample with 5 μM dexamethasone and expressed as % relative binding activity with dexamethasone being 100% and no inhibition is 0%. Test compounds were analyzed in the concentration range from 8.5E-05 μM to 5 μM.
Background: In fluorescence polarisation assays a small probe gives low polarisation when free and higher when bound to something large.

The test system of experiment [2] is AP-1 induced transcriptional activity. The experiment in a line: Cellular Transrepressional Assay (AP-1 luciferase reporter in A549 cell, PMA activated). In kind it is cell-based. The conditions noted are these: Homo sapiens, A549, 7 h, pAP-1-Luc; for Emax: maximum inhibition, PMA, read-out: AP-1 Max % inh (Cellular Transrepression Assay); for EC50: 10 ng/ml PMA, 7 hours, read-out: AP-1 EC50, nM (Cellular Transrepression Assay). In short, it runs like this: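 A549 cells stably carrying a 7×AP-1-site luciferase reporter were stimulated with 10 ng/ml PMA for 7 h alongside test molecules (0.1 nM to 40 μM). Luminescence read 10 min after luciferase reagent; repression expressed as % decrease of PMA-only signal, EC50 from curve fitting at 50% reduction of AP-1 activity.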
On the technique in general: A reporter such as luciferase makes a cellular process visible.

Regarding `CC(C(=O)Nc1nncs1)C(c1cccc(F)c1)c1ccc(Br)s1` (mixture of isomers) [Example 93, 3-(5-bromo-2-thienyl)-3-(3-fluorophenyl)-2-methyl-N-1,3,4-thiadiazol-2-ylpropanamide], in experiment [1], the Ki was 2.79 nM.

For `CC(C(=O)Nc1nncs1)C(c1ccccc1)c1ccc(Br)s1` (mixture of isomers) [Example 132, 3-(5-bromo-2-thienyl)-2-methyl-3-phenyl-N-1,3,4-thiadiazol-2-ylpropanamide], in experiment [1], the Ki amounted to 3.2 nM.

With `CC(C)(C(=O)Nc1nncs1)C(c1ccccc1)c1ccc(Br)s1` (single isomer, unassigned) [Example 84, 3-(5-bromo-2-thienyl)-2,2-dimethyl-3-phenyl-N-1,3,4-thiadiazol-2-ylpropanamide], in experiment [1], the Ki came out at 5.06 nM.

For the molecule `CC(C)(C(=O)Nc1nncs1)C(c1ccccc1)c1ccc(Br)s1` (single isomer, unassigned) [Example 85, 3-(5-bromo-2-thienyl)-2,2-dimethyl-3-phenyl-N-1,3,4-thiadiazol-2-ylpropanamide], the Ki in experiment [1] is 2.74 nM.

Consider `CC(C(=O)Nc1nncs1)C(c1ccccc1)c1ccc(Br)s1` (single isomer, unassigned) [Example 134, 3-(5-bromo-2-thienyl)-2-methyl-3-phenyl-N-1,3,4-thiadiazol-2-ylpropanamide], for which the Ki in experiment [1] worked out at 1.06 nM.

Consider `CC(C(=O)Nc1nncs1)C(c1ccccc1)c1ccc(Br)s1` (single isomer, unassigned) [Example 135, 3-(5-bromo-2-thienyl)-2-methyl-3-phenyl-N-1,3,4-thiadiazol-2-ylpropanamide], for which, in experiment [1], the inhibition constant Ki turned out to be 1.25 nM.

For `CC(C(=O)Nc1nncs1)C(c1ccccc1)c1ccc(-c2ccc(C(=O)N(C)C)cc2)s1` (single isomer, unassigned) [Example 138, N,N-dimethyl-4-(5-(2-methyl-3-oxo-1-phenyl-3-(1,3,4-thiadiazol-2-ylamino)propyl)-2-thienyl)benzamide], the Ki in experiment [1] came out at 360 nM.

For `CC(C(=O)Nc1nncs1)C(c1ccccc1)c1ccc(-c2ccc(C(=O)N(C)C)cc2)s1` (single isomer, unassigned) [Example 139, N,N-dimethyl-4-(5-(2-methyl-3-oxo-1-phenyl-3-(1,3,4-thiadiazol-2-ylamino)propyl)-2-thienyl)benzamide], the Ki in experiment [1] was found to be 259 nM.

Turning to `C[C@@H](C(=O)Nc1nncs1)[C@H](c1ccccc1)c1ccc(-c2ccc(C(=O)N3CCOCC3)cc2)s1` (stereo in doubt) [Example 152, (2R,3R)-2-methyl-3-(5-(4-(4-morpholinylcarbonyl)phenyl)-2-thienyl)-3-phenyl-N-1,3,4-thiadiazol-2-ylpropanamide], the inhibitory constant (Ki) in experiment [1] came out at 4.85 nM.

In the case of `CCN(C)C(=O)c1ccc(-c2ccc([C@@H](c3ccccc3)[C@@H](C)C(=O)Nc3nncs3)s2)cc1` (stereo in doubt) [Example 154, N-ethyl-N-methyl-4-(5-((1R,2R)-2-methyl-3-oxo-1-phenyl-3-(1,3,4-thiadiazol-2-ylamino)propyl)-2-thienyl)benzamide], the inhibition constant Ki in experiment [1] stood at 2.15 nM.

`CC(C)(C(=O)Nc1nncs1)C(c1ccccc1)c1ccc(Br)s1` (stereo not shown) [Example 3, -(5-bromo-2-thienyl)-2,2-dimethyl-3-phenyl-N-1,3,4-thiadiazol-2-ylpropanamide]: the Ki in experiment [1] is 3.66 nM.

`CC(C)(C(=O)Nc1nccs1)C(c1ccccc1)c1ccc(Br)s1` (stereo not shown) [Example 4, 3-(5-bromo-2-thienyl)-2,2-dimethyl-3-phenyl-N-1,3-thiazol-2-ylpropanamide]: the inhibition constant Ki in experiment [1] is 6.97 nM.

For the molecule `CC(C)Cc1ccc(-c2ccc([C@@H](c3cccc(F)c3)[C@@H](C)C(=O)Nc3nncs3)s2)cc1` [Example 114, (2R,3R)-3-(3-fluorophenyl)-3-(5-(4-isobutylphenyl)-2-thienyl)-2-methyl-N-1,3,4-thiadiazol-2-ylpropanamide], in experiment [2], the Emax came to 36.6% and the 50% effective concentration (EC50) came to 45.5 nM.

As for `C[C@@H](C(=O)Nc1nncs1)[C@H](c1cccc(F)c1)c1ccc(-c2ccc(C(=O)N3CCCC3)c(Cl)c2)s1` [Example 115, (2R,3R)-3-(5-(3-chloro-4-(1-pyrrolidinylcarbonyl)phenyl)-2-thienyl)-3-(3-fluorophenyl)-2-methyl-N-1,3,4-thiadiazol-2-ylpropanamide], in experiment [2], the Emax was found to be 39.1% and the EC50 stood at 31 nM.

On to `C[C@@H](C(=O)Nc1nncs1)[C@H](c1cccc(F)c1)c1ccc(-c2ccc(C(=O)N3CCCC3)c(F)c2)s1` [Example 116, (2R,3R)-3-(3-fluorophenyl)-3-(5-(3-fluoro-4-(1-pyrrolidinylcarbonyl)phenyl)-2-thienyl)-2-methyl-N-1,3,4-thiadiazol-2-ylpropanamide], for which, in experiment [2], the Emax turned out to be 40.8% and the concentration giving a half-maximal response (EC50) was determined as 67.7 nM.

For `C[C@@H](C(=O)Nc1nncs1)[C@H](c1cccc(F)c1)c1ccc(-c2ccc(C(=O)N(C)C)cc2)s1` [Example 117, 4-(5-((1R,2R)-1-(3-fluorophenyl)-2-methyl-3-oxo-3-(1,3,4-thiadiazol-2-ylamino)propyl)-2-thienyl)-N,N-dimethylbenzamide], in experiment [2], the Emax amounted to 56.5% and the EC50 stood at 14.4 nM.

`C[C@@H](C(=O)Nc1nncs1)[C@H](c1cccc(F)c1)c1ccc(-c2ccc(C(=O)N3CCCC3)cc2)s1` [Example 118, (2R,3R)-3-(3-fluorophenyl)-2-methyl-3-(5-(4-(1-pyrrolidinylcarbonyl)phenyl)-2-thienyl)-N-1,3,4-thiadiazol-2-ylpropanamide]: in experiment [2], the Emax stood at 55.3% and the concentration for a half-maximal effect (EC50) was found to be 61.6 nM.

Turning to `CCN(C)C(=O)c1ccc(-c2ccc([C@@H](c3cccc(F)c3)[C@@H](C)C(=O)Nc3nncs3)s2)cc1Cl` [Example 119, 2-chloro-N-ethyl-4-(5-((1R,2R)-1-(3-fluorophenyl)-2-methyl-3-oxo-3-(1,3,4-thiadiazol-2-ylamino)propyl)-2-thienyl)-N-methylbenzamide], in experiment [2], the Emax turned out to be 47.6% and the half-maximal effective concentration (EC50) amounted to 22.7 nM.

As for `CCN(C)C(=O)c1ccc(-c2ccc([C@@H](c3cccc(F)c3)[C@@H](C)C(=O)Nc3nncs3)s2)cc1F` [Example 120, N-ethyl-2-fluoro-4-(5-((1R,2R)-1-(3-fluorophenyl)-2-methyl-3-oxo-3-(1,3,4-thiadiazol-2-ylamino)propyl)-2-thienyl)-N-methylbenzamide], in experiment [2], the Emax was determined as 42.9% and the half-maximal effective concentration (EC50) was 22.9 nM.

As for `C[C@@H](C(=O)Nc1nncs1)[C@H](c1cccc(F)c1)c1ccc(-c2ccc(C(=O)N3CCC(F)(F)C3)cc2)s1` [Example 121, (2R,3R)-3-(5-(4-((3,3-difluoro-1-pyrrolidinyl)carbonyl)phenyl)-2-thienyl)-3-(3-fluorophenyl)-2-methyl-N-1,3,4-thiadiazol-2-ylpropanamide], in experiment [2], the Emax was 28.7% and the EC50 turned out to be 66.8 nM.

Turning to `C[C@@H](C(=O)Nc1nncs1)[C@H](c1ccccc1)c1ccc(-c2ccc(C(=O)N(C)C)cc2)s1` [Example 140, N,N-dimethyl-4-(5-((1R,2R)-2-methyl-3-oxo-1-phenyl-3-(1,3,4-thiadiazol-2-ylamino)propyl)-2-thienyl)benzamide], in experiment [2], the Emax came to 54.1% and the 50% effective concentration (EC50) amounted to 15.2 nM.

With `CCN(C)C(=O)c1ccc(-c2ccc([C@@H](c3cccc(F)c3)[C@@H](C)C(=O)Nc3nnc(C)s3)s2)cc1` [Example 141, N-Ethyl-4-(5-((1R,2R)-1-(3-fluorophenyl)-2-methyl-3-((5-methyl-1,3,4-thiadiazol-2-yl)amino)-3-oxopropyl)-2-thienyl)-N-methylbenzamide], in experiment [2], the Emax came out at 46% and the EC50 is 62.2 nM.

Regarding `CCN(C)C(=O)c1ccc(-c2ccc([C@@H](c3cccc(F)c3)[C@@H](C)C(=O)Nc3nccs3)s2)cc1` [Example 143, N-ethyl-4-(5-((1R,2R)-1-(3-fluorophenyl)-2-methyl-3-oxo-3-(1,3-thiazol-2-ylamino)propyl)-2-thienyl)-N-methylbenzamide], in experiment [2], the Emax is 63.6% and the EC50 came to 16.9 nM.
